Source: patent US20250051345A1, “PYRIDINE-3-CARBOXYLATE COMPOUNDS AS CAV1.2 ACTIVATORS” (Novartis AG, priority 2021, published 2025)

Key:
human Cav1.2 [1] = molecular target: T1, human Cav1.2 (Homo sapiens (Human), UniProt Q13936); assay: Sophion QPatch dose-response assay, whole-cell voltage clamp of barium currents in the Cav1.2-HEK293 (AUX) cell line; format: cell-based; settings: for QPatch Emax: maximal fold change of peak inward current
Procedure: (§1) Clonal isolation was achieved under Neomycin selection.
(§2) Each experimental run uses 1.5 mL of cells.
(§3) The protocol had eight liquid periods. […] The protocol had four liquid periods.

human Cav1.2 [2] = molecular target: T1, human Cav1.2; assay: QPatch channel biophysics assay (V1/2 voltage shift, tau of inactivation) in the Cav1.2-HEK293 (AUX) cell line; format: cell-based
Procedure: as §1, §2, §3

[3] = Compound exposure in brain (cerebellum) and blood of wild-type mice; format: in vivo, mouse; settings: C57BL/6J male mice, i.p., one hour after administration
Source text: (§4) Compound administration and brain tissue collection.
Quantification of compound exposure.

cFos mRNA = cFos mRNA induction in cortex of wild-type mice (PK-PD); format: in vivo, mouse; settings: 3 mg/kg ip, one hour after administration
Procedure: as §4
Quantification of cFos mRNA induction. Tissue homogenization was performed using TissueLyser system for 96 well plates (Qiagen). First, frozen cortical samples were thawed, removed from RNAlater, and placed into TissueLyser tubes along with Buffer RLT containing 0.5% Reagent DX and one 5 mm TissueLyser metal bead. The TissueLyser tubes were loaded into a TissueLyser II tissue homogenizer for 3 rounds of homogenization, with each round lasting 5 minutes at 30 Hz bead-beating frequency. Total RNA was purified from the homogenate using RNeasy 96 Plus kit (Qiagen), RNA concentration and A260/A280 ratio were quantified via the Nanodrop (ThermoFisher), and all samples were normalized to 100 ng/μl concentration. […]
Quantitative PCR was performed on the cDNA samples using Quantitect Multiplex RT-PCR kit (Qiagen) in a 384-well assay format. […] On the ViiA7 Real-Time PCR system (ThermoFisher), the samples were heated to 95° C. for 15 minutes then cycled between 94° C. for 45 seconds and 60° C. for 45 seconds for 45 cycles. cFos Ct values were exported, normalized to GAPDH Ct values, and converted to relative fold change in expression using the delta-delta Ct relative quantification method. cFos fold changes between compound treatments and vehicle were analyzed by one-way ANOVA, followed by Tukey's post-hoc comparisons.

[4] = 6-point dose response, 10 determinations per concentration, n = 1 unless stated
[5] = shift of half-way channel activation voltage V1/2
[6] = comparative examples, single enantiomers of reported racemates

T1 sequence (Q13936 whole entry): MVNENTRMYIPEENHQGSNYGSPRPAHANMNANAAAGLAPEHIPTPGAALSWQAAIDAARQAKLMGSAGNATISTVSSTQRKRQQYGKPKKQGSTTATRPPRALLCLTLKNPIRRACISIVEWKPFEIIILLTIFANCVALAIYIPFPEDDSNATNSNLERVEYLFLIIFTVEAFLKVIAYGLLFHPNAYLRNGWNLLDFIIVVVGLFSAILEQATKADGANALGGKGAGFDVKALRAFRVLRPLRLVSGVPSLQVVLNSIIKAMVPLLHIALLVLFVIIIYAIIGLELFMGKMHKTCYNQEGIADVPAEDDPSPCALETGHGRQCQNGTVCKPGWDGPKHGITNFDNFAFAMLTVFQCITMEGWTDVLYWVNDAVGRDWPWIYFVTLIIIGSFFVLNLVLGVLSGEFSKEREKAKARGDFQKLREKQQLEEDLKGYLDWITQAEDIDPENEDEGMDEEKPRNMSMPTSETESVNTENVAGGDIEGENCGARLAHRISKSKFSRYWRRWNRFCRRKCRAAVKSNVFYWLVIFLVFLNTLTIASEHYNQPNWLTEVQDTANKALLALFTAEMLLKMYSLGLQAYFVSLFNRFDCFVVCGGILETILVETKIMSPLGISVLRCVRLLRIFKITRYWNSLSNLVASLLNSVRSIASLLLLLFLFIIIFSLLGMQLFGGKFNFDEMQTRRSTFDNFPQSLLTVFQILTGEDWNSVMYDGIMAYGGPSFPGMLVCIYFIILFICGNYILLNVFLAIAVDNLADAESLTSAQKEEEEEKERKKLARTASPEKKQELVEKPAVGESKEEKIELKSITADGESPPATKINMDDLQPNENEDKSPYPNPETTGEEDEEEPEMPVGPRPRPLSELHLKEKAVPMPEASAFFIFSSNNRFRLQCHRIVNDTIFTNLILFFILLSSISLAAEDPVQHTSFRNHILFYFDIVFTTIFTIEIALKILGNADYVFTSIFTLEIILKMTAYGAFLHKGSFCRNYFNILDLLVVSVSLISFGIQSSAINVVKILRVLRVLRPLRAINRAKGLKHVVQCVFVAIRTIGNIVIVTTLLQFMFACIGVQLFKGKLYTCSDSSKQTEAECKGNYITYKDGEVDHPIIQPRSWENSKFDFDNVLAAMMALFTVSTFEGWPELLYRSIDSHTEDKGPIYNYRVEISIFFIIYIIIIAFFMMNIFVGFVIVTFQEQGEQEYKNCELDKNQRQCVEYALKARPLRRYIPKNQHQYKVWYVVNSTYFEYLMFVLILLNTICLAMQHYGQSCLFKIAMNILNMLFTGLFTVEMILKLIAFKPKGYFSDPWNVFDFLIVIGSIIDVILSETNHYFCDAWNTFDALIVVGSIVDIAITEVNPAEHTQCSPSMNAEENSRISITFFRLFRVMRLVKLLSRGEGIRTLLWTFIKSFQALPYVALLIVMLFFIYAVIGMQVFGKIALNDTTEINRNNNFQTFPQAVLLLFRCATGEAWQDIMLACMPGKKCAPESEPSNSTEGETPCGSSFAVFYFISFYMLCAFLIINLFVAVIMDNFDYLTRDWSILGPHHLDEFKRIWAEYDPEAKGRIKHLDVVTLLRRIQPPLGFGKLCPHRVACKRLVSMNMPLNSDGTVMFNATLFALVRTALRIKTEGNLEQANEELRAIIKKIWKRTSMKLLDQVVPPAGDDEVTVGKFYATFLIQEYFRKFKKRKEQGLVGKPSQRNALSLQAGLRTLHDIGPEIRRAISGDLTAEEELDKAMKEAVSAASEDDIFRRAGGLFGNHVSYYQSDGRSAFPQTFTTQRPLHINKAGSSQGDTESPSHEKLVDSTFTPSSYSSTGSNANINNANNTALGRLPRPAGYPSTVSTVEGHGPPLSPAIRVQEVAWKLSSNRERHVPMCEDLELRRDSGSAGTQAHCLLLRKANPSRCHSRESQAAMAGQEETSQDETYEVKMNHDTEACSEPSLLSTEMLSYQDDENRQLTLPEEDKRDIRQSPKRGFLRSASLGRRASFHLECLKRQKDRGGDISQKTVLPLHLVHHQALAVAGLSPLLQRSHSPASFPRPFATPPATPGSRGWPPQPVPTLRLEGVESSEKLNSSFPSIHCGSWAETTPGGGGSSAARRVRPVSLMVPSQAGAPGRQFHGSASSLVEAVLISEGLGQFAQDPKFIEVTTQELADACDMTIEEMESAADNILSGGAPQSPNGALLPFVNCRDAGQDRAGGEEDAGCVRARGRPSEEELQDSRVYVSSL

Row | SMILES | EC50 (human Cav1.2 [1]; [4]) | QPatch Emax (human Cav1.2 [1]) | Biophysics voltage shift (human Cav1.2 [2]; [5]) | QPatch Emax (human Cav1.2 [1]; comparative examples) | EC50 (human Cav1.2 [1]; [6]) | Biophysics voltage shift (human Cav1.2 [2]; comparative examples) | also measured
1 | COC(=O)C1=C(C)NC2=C(C(=O)OC2)[C@H]1c1cncc(F)c1[C@@H](C)F (single isomer, unassigned) [Example 1, methyl(S)-4-(5-fluoro-4-((R)-1-fluoroethyl)pyridin-3-yl)-2-methyl-5-oxo-1,4,5,7-tetrahydrofuro [3,4-b]pyridine-3-carboxylate or methyl(S)-4-(5-fluoro-4-((S)-1-fluoroethyl)pyridin-3-yl)-2-methyl-5-oxo-1,4,5,7-tetrahydrofuro [3,4-b]pyridine-3-carboxylate] | 220 nM | 3.3 | −6.6 mV |  |  |  | Brain: blood Ratio [3]: 0.2; %↑ cFOS mRNA cortex (cFos mRNA): 174%
2 | COC(=O)C1=C(C(F)F)NC2=C(C(=O)OC2)[C@H]1c1cncc(F)c1[C@@H](C)F (single isomer, unassigned) [Example 6, methyl 2-(difluoromethyl)-4-(5-fluoro-4-(1-fluoroethyl)pyridin-3-yl)-5-oxo-1,4,5,7-tetrahydrofuro [3,4-b]pyridine-3-carboxylate] | 250 nM | 2.5 | −5.6 mV |  |  |  | 
3 | COC(=O)C1=C(C)NC(C)=C([N+](=O)[O-])[C@H]1c1ccccc1C(F)(F)F [Comparative Example 1, BayK8644] |  |  |  | 3.9 |  |  | 
4 | CCOC(=O)C1=C(C)NC2=C(C(=O)OC2)[C@H]1c1ccccc1OCc1ccccc1 [Comparative Example 2, RS30124] |  |  |  | 4.3 | 450 nM | −15.4 mV | 
5 | CCOC(=O)C1=C(C)NC2=C(C(=O)OC2)[C@H]1c1ccccc1OC(F)F [Comparative Example 3, CGP028392] |  |  |  | 2.2 | 280 nM | −6.7 mV | 
6 | COC(=O)C1=C(C)NC2=C(C(=O)OC2)C1c1ccccc1C (stereo not shown) [Comparative Example 4] |  |  |  | 1.4 | 2240 nM |  | 
7 | COC(=O)C1=C(C)NC2=C(C(=O)OC2)C1c1ccccc1C(F)(F)F (stereo not shown) [Comparative Example 5] |  |  |  | 1.4 | 360 nM | −4.3 mV | 
8 | COC(=O)C1=C(C)NC2=C(C(=O)OC2)C1c1ccccc1OC(F)F (stereo not shown) [Comparative Example 6] |  |  |  | 1.7 | 510 nM | −7.1 mV | 
9 | CCOC(=O)C1=C(C)NC2=C(C(=O)OC2)C1c1ccccc1C(F)(F)F (stereo not shown) [Comparative Example 7] |  |  |  | 1.9 | 930 nM |  | 
10 | COC(=O)C1=C(CF)NC2=C(C(=O)OC2)[C@H]1c1cncc(F)c1[C@@H](C)F [Example 2, methyl (R)-4-(5-fluoro-4-((R)-1-fluoroethyl)pyridin-3-yl)-2-(fluoromethyl)-5-oxo-1,4,5,7-tetrahydrofuro [3,4-b]pyridine-3-carboxylate] | 61 nM | 2.2 | −5.9 mV |  |  |  | activity in the Sophion QPatch assay relative to the enantiomer (human Cav1.2 [1]; comparison of stereoisomers): higher activity than its corresponding enantiomer; Kp at 1 h ([3]; mouse, brain (cerebellum) / blood, ip, 3 mg/kg, read-out: Brain: blood Ratio): 1.5; %↑ cFOS mRNA cortex (cFos mRNA): 384%
